Experimental data: US20110046228A1 (priority 2009, published 2011)
“And” between values parts separate entries of the source, which are not always exact repeats. Equal entries are not always repeated. Where two headings read alike, the source gives them in different places.

What was measured:
[1] = parameters: AUC0-t, Geometric Mean: unit not given beside the values
[2] = system: individuals with Behcet's syndrome (or disease); conditions: adjusted to bodyweight, cited from earlier work
clinical = conditions: both, human, plasma, oral, 0.6 mg; for AUC(0-t): AUC0-t; for AUC(0-inf): AUC0-∞; for CL/F: Weight-Adjusted CL/F
Method: This study is an open-label, non-randomized, single-center, one-sequence, two-period drug interaction study conducted in healthy male and female volunteers. Twenty-four (24) non-smoking, non-obese adult volunteers will be enrolled. All subjects will be dosed and studied as a single cohort, with each subject receiving the same treatment in a non-randomized fashion. As described below, a single dose of colchicine, 0.6 mg, will be administered alone on Day 1, and then co-administered with the grapefruit juice on Day 18. Grapefruit juice will be administered for 4 consecutive days (1×240 mL twice daily Days 15-17 and Day 18 (PM) alone and co-administered with a single 0.6 mg colchicine tablet in the morning on Day 18 (AM) (1×240 mL) beginning on the morning of Day 15, with the last 240 mL grapefruit juice dose administered in the evening of Day 18. A 14-day washout period will be completed after the first colchicine dose on Day 1 and prior to the administration of the first grapefruit juice dose on Day 15.
Grapefruit juice ([…] ® brand) will be purchased and stored according to the labeled instructions. Subjects in the study will consume 240 mL (8 fluid ounces) of juice every 12 hours for 8 doses (4 day regimen) to ensure the maximum inhibitory effect.
Following a screening period of up to 28 days, 24 healthy male and female volunteers will be enrolled. Subjects will be confined to the study unit for approximately 1.5 days on two separate occasions starting at least 10 hours prior to dosing on the evening of Day 1 and Day 17 until 24 hours following study drug administration on Day 1 and Day 18. In addition to confinement, study subjects will return to the clinical study site for the collection of blood samples 36, 48, 72, and 96 hours post dosing during both colchicine pharmacokinetic sampling periods. Total study participation, exclusive of up to 28 days of screening, will be approximately 22 days, during which subjects will be confined on two occasions for a total confinement of approximately 3 days.
All subjects will receive a single 0.6 mg dose of colchicine on Day 1, followed by a 14-day washout period in which subjects will not be confined at study site. At discharge on Day 2 (at approximately 8 AM), study subjects will be instructed to return to the clinical site on Days 15 through 17 in the mornings and evenings to consume (1×240 mL, i.e., 8 fluid ounces) grapefruit juice twice daily on Days 15 through 17 in a ‘directly-observed’ fashion. On the evening of Day 17, study participants will return to the clinic for their final study confinement period. In the morning of Day 18, study subjects will receive a single 0.6 mg colchicine dose with a 240 mL serving of grapefruit juice. In the evening of Day 18, study subjects will receive their final 240 mL serving of grapefruit juice administered alone.
A minimum fasting period of 10 hours (overnight fast) will be in effect before administration of colchicine on Day 1 and prior to the administration of colchicine and grapefruit juice on Day 18. Fasting will continue for 4 hours post-dosing on Days 1 and 18 after the morning administration. Grapefruit juice doses administered on Days 15-17 and Day 18 (PM) will not be in a fasted state. For colchicine, medication must be swallowed whole, not chewed. For grapefruit juice, the entire serving must be consumed. For all treatments, the subjects will not be permitted to lie down for the first 4 hours following administration of drug to ensure proper stomach emptying. On both of the confined study days after the morning administrations (Day 1 and Day 18), water will be allowed ad libitum beginning 2 hours post-dose. Intake of all study medications will be supervised. Standardized meals will be served according to a pre-determined schedule throughout the study.
Serial blood samples will be collected by individual venipuncture up to 96 hours following drug administration on Day 1 and Day 18.

[3] = with a single glass (200-250 mL) of grapefruit juice; cited from earlier work
[4] = individual subjects, single 0.6 mg colchicine, plasma, A Day 1, A + B Day 18
[5] = maximum of N = 21, single 0.6 mg colchicine, plasma
[6] = mean of N = 21, single 0.6 mg colchicine, plasma
[7] = median of N = 21, single 0.6 mg colchicine, plasma
[8] = minimum of N = 21, single 0.6 mg colchicine, plasma
[9] = single 0.6 mg colchicine dose, plasma
[10] = Least Squares Mean, Non-Transformed Data, single 0.6 mg colchicine dose
[11] = Mean, mean of N = 21, single 0.6 mg colchicine
[12] = Median, median of N = 21, single 0.6 mg colchicine
[13] = Geometric Mean, single 0.6 mg colchicine dose, N = 21, based on least squares means of ln-transformed values

Compound: COc1cc2c(c(OC)c1OC)-c1ccc(OC)c(=O)cc1[C@@H](NC(C)=O)CC2 [Treatment A, (−)-N-[(7S, 12aS)-1,2,3,10-tetramethoxy-9-oxo-5,6,7,9-tetrahydrobenzo[a]heptalen-7-yl]-acetamide]
- AUC0-∞ [1, 4]: 10.8336 ng·h/mL and 14.15474 ng·h/mL and 9.5485 ng·h/mL and 13.07636 ng·h/mL and 20.67702 ng·h/mL and 9.19604 ng·h/mL and 7.56206 ng·h/mL and 10.95321 ng·h/mL and 12.50531 ng·h/mL and 8.2513 ng·h/mL and 7.55929 ng·h/mL and 21.66786 ng·h/mL and 8.57677 ng·h/mL and 10.79516 ng·h/mL and 4.54846 ng·h/mL and 9.55313 ng·h/mL
- CL/F [1, 4]: 55.38 L/h and 42.39 L/h and 62.84 L/h and 57.10 L/h and 45.88 L/h and 29.02 L/h and 65.25 L/h and 79.34 L/h and 54.78 L/h and 57.58 L/h and 51.63 L/h and 57.64 L/h and 47.98 L/h and 72.72 L/h and 79.37 L/h and 27.69 L/h and 58.47 L/h and 69.96 L/h and 55.58 L/h and 131.91 L/h and 62.81 L/h
- Kel [1, 4]: 0.1619 h⁻¹ and 0.2194 h⁻¹ and 0.1653 h⁻¹ and 0.1160 h⁻¹ and 0.1881 h⁻¹ and 0.0484 h⁻¹ and 0.2291 h⁻¹ and 0.1859 h⁻¹ and 0.1655 h⁻¹ and 0.1563 h⁻¹ and 0.1843 h⁻¹ and 0.1946 h⁻¹ and 0.1506 h⁻¹ and 0.1355 h⁻¹ and 0.2178 h⁻¹ and 0.0847 h⁻¹ and 0.1512 h⁻¹ and 0.1866 h⁻¹ and 0.1851 h⁻¹ and 0.2814 h⁻¹ and 0.1925 h⁻¹
- Tmax [1, 4]: 1.00 h and 2.00 h
- Varea/F [1, 4]: 342.07 L and 193.19 L and 380.20 L and 492.22 L and 243.91 L and 599.39 L and 284.79 L and 426.86 L and 331.07 L and 368.37 L and 280.11 L and 296.22 L and 318.56 L and 536.77 L and 364.36 L and 327.00 L and 386.70 L and 374.82 L and 300.24 L and 468.69 L and 326.22 L
- t1/2 [1, 4]: 4.28 h and 3.16 h and 4.19 h and 5.98 h and 3.68 h and 14.32 h and 3.03 h and 3.73 h and 4.43 h and 3.76 h and 3.56 h and 4.60 h and 5.12 h and 3.18 h and 8.19 h and 4.58 h and 3.71 h and 3.74 h and 2.46 h and 3.60 h
- AUC0-t, Max [1, 5]: 18.3968 ng·h/mL
- AUC0-∞, Max [1, 5]: 21.66786 ng·h/mL
- CL/F, Max [1, 5]: 131.91 L/h
- Cmax, Max [1, 5]: 3.758 ng/mL
- Kel, Max [1, 5]: 0.2814 h⁻¹
- Tmax, Max [1, 5]: 2.00 h
- Varea/F, Max [1, 5]: 599.39 L
- t1/2, Max [1, 5]: 14.32 h
- CL/F, Mean [1, 6]: 60.25 L/h
- Kel, Mean [1, 6]: 0.1714 h⁻¹
- Varea/F, Mean [1, 6]: 363.89 L
- CL/F, Median [1, 7]: 57.58 L/h
- Kel, Median [1, 7]: 0.1843 h⁻¹
- Varea/F, Median [1, 7]: 342.07 L
- t1/2, Median [1, 7]: 3.76 h
- AUC0-t, Min [1, 8]: 3.83287 ng·h/mL
- AUC0-∞, Min [1, 8]: 4.54846 ng·h/mL
- CL/F, Min [1, 8]: 27.69 L/h
- Cmax, Min [1, 8]: 0.8452 ng/mL
- Kel, Min [1, 8]: 0.0484 h⁻¹
- Tmax, Min [1, 8]: 1.00 h
- Varea/F, Min [1, 8]: 193.19 L
- t1/2, Min [1, 8]: 2.46 h
- Bioequivalence of oral colchicine with grapefruit juice vs in the absence of grapefruit juice ([1]; recommended maximum daily amount of grapefruit juice (about 16 fluid ounces daily)): bioequivalent
- Kel, Least Squares Mean, Non-Transformed Data [1, 9]: 0.1714
- Varea/F, Least Squares Mean, Non-Transformed Data [1, 9]: 363.89
- AUC0-t, Geometric Mean ([1]; single 0.6 mg colchicine dose, plasma, N = 21, based on least squares means of ln-transformed values): 8806.78
- Clinical effect in Behcet's disease ([2]; 1-2 mg daily): reduced the frequency of genital ulcers, erythema nodosum, and arthritis among women and reduced the occurrence of arthritis among men
- Clinical effect in Behcet's syndrome ([2]; 1-2.4 mg daily): reduced the frequency of genital ulcers, erythema nodosum, and arthritis among women and reduced the occurrence of arthritis among men
- AUC(0-t) (clinical; [10]): 9.33 ng·h/mL
- AUC(0-t) (clinical; [11]): 9.33 ng·h/mL
- AUC(0-t) (clinical; [12]): 8.84 ng·h/mL
- AUC(0-inf) (clinical; [13]): 10.5 ng·h/mL
- AUC(0-inf) (clinical; [10]): 11.1 ng·h/mL
- AUC(0-inf) (clinical; [11]): 11.1 ng·h/mL
- AUC(0-inf) (clinical; [12]): 10.4 ng·h/mL
- Cmax (clinical; [13]): 2.07 ng/mL
- Cmax (clinical; [10]): 2.17 ng/mL
- Cmax (clinical; [11]): 2.17 ng/mL
- Cmax (clinical; [12]): 2.06 ng/mL
- Tmax (clinical; [10]): 1.24 h
- Tmax (clinical; [11]): 1.24 h
- Tmax (clinical; [12]): 1 h
- CL/F (clinical; [10]): 12.3 mL/min/kg
- CL/F (clinical; [11]): 12.3 mL/min/kg
- CL/F (clinical; [12]): 11.3 mL/min/kg
- half-life (clinical; t1/2, Least Squares Mean, Non-Transformed Data, single 0.6 mg colchicine dose): 4.64 h
- half-life (clinical; t1/2, Mean, mean of N = 21, single 0.6 mg colchicine): 4.64 h

Compound: CCOC(=O)C1=C(C)NC(C)=C(C(=O)OC)C1c1cccc(Cl)c1Cl (stereo not shown) [felodipine]
- Change in AUC and Cmax of orally administered felodipine [3]: several-fold increase
